According to patent US8877791B2, “Inhibitors of pyruvate kinase and methods of treating disease” (Beth Israel Deaconess Medical Center, Inc., priority 2006, dated 2014):

Experiments:
[1] = test system: H1299 and A549 human lung cancer cells; assay: Killing of human lung cancer cell lines by increasing concentrations of compound; type: cell-based; conditions: concentration required to kill >90% of the cells, read-out: IC50 in vivo
Description: (§1) For in vitro studies, recombinant pyruvate kinase was incubated with the compound indicated (Table 2) and the activity of the enzyme assessed, as described in Example 4. To determine the IC50, enzyme activity was determined at various concentrations of inhibitor. The percentages shown in Table 2 reflect the inhibition of enzyme activity relative to the absence of compound when the enzyme is incubated with 50 μM of the compound indicated. For in vivo studies, human lung cancer cell lines were incubated with increasing concentrations of the compound indicated and the concentration required to kill >90% of the cells is reported.
Human lung cancer cells were exposed to increasing concentrations of candidate compounds A2 and D1. The toxicity of the compounds was measured by determining the percentage of surviving cells. Cells were mock-treated with DMSO as a control. […] depicts the toxicity of compounds A2 (FIG. 8a) and D1 (FIG. 8b) in H1299 cells compared to mock treatment with DMSO.

PKM2 = PKM2 (Homo sapiens (Human), UniProt P14618); assay: Recombinant PKM2 enzyme activity in the presence of FBP (LDH-coupled NADH consumption); type: biochemical; conditions: for IC50: recombinant pyruvate kinase, enzyme activity at various concentrations of inhibitor, read-out: IC50 in vitro (PKM2); for PKM2 inhibition of enzyme activity relative to the absence of compound: screening concentration estimated at 50 μM
Sequence of PKM2 (P14618 whole entry, species assumed): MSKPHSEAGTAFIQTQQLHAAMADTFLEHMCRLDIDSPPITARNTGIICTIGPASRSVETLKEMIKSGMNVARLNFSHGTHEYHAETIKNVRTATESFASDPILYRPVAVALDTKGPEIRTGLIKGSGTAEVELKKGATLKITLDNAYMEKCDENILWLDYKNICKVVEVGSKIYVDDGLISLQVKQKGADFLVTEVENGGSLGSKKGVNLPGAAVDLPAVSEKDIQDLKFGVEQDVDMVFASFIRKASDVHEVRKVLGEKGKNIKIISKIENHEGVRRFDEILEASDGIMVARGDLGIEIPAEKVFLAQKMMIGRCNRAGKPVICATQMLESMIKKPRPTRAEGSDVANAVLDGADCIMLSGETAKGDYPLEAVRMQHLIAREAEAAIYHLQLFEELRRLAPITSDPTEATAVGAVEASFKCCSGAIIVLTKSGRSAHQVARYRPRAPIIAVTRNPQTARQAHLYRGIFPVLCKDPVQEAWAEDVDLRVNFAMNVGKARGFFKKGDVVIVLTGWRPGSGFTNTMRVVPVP
Description: (§2) Recombinant PKM1 and PKM2 were expressed in E. coli and purified using an Ni-NTA column according to standard protocols. PKM2 ([…]) was mixed with the following components: 0.6 mM ADP, 0.5 mM phosphoenolpyruvate, 200 μM NADH, 1-4 units of lactate dehydrogenase, 50 μM FBP, 1 mM DTT, 0.02% Brij 35, 5% glycerol, and the test molecule with a final DMSO concentration of 5%. A control reaction lacked the test molecule. The test molecules used in this example were selected from a library containing over 100,000 compounds.
Primary screening was performed using PKM2 in the presence of FBP. […] Activity was measured by monitoring the concentration of NADH. Pyruvate, produced by the enzymatic activity of pyruvate kinase, is converted into lactate by lactate dehydrogenase, which requires the consumption of NADH (NADH→NAD^+). Thus, the activity of PKM2 was indirectly measured by monitoring the consumption of NADH through fluorescence assays. Additionally, the activity of the PKM2 enzyme was directly monitored by measuring the production of ATP, as ATP is produced when phosphoenolpyruvate is converted to pyruvate by PKM2.
as §1

FL5.12 cells = assay: Toxicity in FL5.12 cells with and without growth factor (IL-3); type: cell-based, mouse; conditions: twenty hours of treatment, presence and absence of IL-3
Description: Mouse pre-lymphocyte cells (FL5.12 cells) were treated with candidate compounds A2 (FIG. 9a) and D1 (FIG. 9b) for twenty hours in the presence and absence of growth factor (IL-3).

PKM1 = PKM1 (Homo sapiens (Human), UniProt P14618); assay: Recombinant PKM1 enzyme activity (same screening method); type: biochemical; conditions: screening concentration estimated at 50 μM
Sequence of PKM1 (P14618 other isoform, or with tags, fused parts or gaps, species assumed): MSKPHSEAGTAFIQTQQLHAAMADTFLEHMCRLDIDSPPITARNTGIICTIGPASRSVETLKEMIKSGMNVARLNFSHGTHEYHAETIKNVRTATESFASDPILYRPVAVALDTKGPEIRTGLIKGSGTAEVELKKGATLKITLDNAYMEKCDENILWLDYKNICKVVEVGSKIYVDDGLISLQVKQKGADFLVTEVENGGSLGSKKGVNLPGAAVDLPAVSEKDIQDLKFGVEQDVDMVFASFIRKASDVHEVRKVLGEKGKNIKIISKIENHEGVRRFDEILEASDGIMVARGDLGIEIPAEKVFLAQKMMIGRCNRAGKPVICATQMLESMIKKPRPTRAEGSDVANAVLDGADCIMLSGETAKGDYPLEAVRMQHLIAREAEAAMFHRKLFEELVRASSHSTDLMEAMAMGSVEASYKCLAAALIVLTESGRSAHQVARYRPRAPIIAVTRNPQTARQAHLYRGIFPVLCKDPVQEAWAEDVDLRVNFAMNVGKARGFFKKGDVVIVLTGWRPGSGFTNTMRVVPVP
Description: as §2
This same screening method was then used to retest candidate molecules for the inhibition of PKM1 to determine which candidate compounds are active against PKM2, but not PKM1.
as §1

| IC50 (PKM2) | PKM2 inhibition of enzyme activity relative to the absence of compound (PKM2) | PKM1 inhibition of enzyme activity relative to the absence of compound (PKM1) | Compound | Concentration killing >90% of cells [1] | Toxicity in FL5.12 cells, effect of growth factor withdrawal (FL5.12 cells) |
| --- | --- | --- | --- | --- | --- |
| 20 µM | 70% | 15% | O=C(O)CN1C(=O)/C(=C/c2ccc(OC(=O)c3ccccc3I)cc2)SC1=S [Compound D1] | ~250 µM | Growth factor withdrawal increases the toxicity |
| ~10 µM | 85% | 0% | CCCCCN1/C(=C/C=C/c2n(CCCCC)c3cc(Cl)c(Cl)cc3[n+]2CCCC)N(CCCC)c2cc(Cl)c(Cl)cc21 [Compound B1] | – | – |

Further lines, the molecule ahead of its results:

| Compound | IC50 (PKM2) | PKM2 inhibition of enzyme activity relative to the absence of compound (PKM2) | PKM1 inhibition of enzyme activity relative to the absence of compound (PKM1) | Concentration killing >90% of cells [1] | Toxicity in FL5.12 cells, effect of growth factor withdrawal (FL5.12 cells) |
| --- | --- | --- | --- | --- | --- |
| C=C(NC(C)C)c1cc2c(=O)oc3ccc(C)cc3c2s1 [Compound G1] | ~70 µM | – | – | > 500 µM | – |
| O=C1C2C3C=CC(C3)C2C(=O)N1c1nc[nH]n1 (stereo not shown) [Compound H1] | 90 µM | – | – | > 500 µM | – |
| CC(=O)CSc1ccc(-n2c(C)ccc2C)cc1 [Compound A1] | ~90 µM | 50% | 15% | > 100 µM | – |
